The text below walks through data of article PMC8197367, “Comparative Antimicrobial Activity of Hp404 Peptide and Its Analogs against Acinetobacter baumannii” (International Journal of Molecular Sciences, 2021).

Data set [1] relates to B. cereus KCTC 1012. In words: MIC, broth microdilution. The format is cell-based, Bacillus cereus. Particulars: two-fold broth microdilution, TSB, 2 × 10^5 CFU/mL, 37 °C, 18 h, read at 600 nm, three independent experiments. How it is done:
(§1) The experiment was performed in triplicate.
On the technique in general: Dilution methods test growth across graded concentrations, often in twofold steps.

Data set [2] has as its system A. baumannii #4. In words: microbe, parasite or virus in culture. Particulars: A. baumannii #4 isolated from patient; broth microdilution, 37 °C, 18 h; three independent experiments. The source says:
(§2) Staphylococcus aureus ATCC 25923, S. aureus ATCC 29213, P. aeruginosa ATCC 27853, Escherichia coli ATCC 25922 and Salmonella typhimurium ATCC 14028 strains were obtained from the American Type Culture Collection (ATCC, Manassas, VA, USA). Listeria monocytogenes KCTC 3710, Bacillus cereus KCTC 1012, K. pneumoniae KCTC 2208 and A. baumannii KCTC 2508 were obtained from the Korean Collection for Type Cultures (KRIBB, Daejeon, South Korea). Clinical isolates of A. baumannii strains were collected from Eulji University Hospital (Seoul, South Korea).
(§3) Hp1404 and its analog peptides activity against both gram-positive and gram-negative bacterial strains were tested using the broth microdilution method. Briefly, S. aureus (ATCC 25923, ATCC 29213) and B. cereus KCTC 1012 were cultured overnight at 37 °C in tryptic soy broth (TSB). P. aeruginosa ATCC 27853, K. pneumoniae KCTC 2208, A. baumannii KCTC 2508 and S. typhimurium ATCC 14028 were cultured overnight at 37 °C in nutrient broth (NB). E. coli ATCC 25922 was cultured overnight at 37 °C in luria bertani (LB). L. monocytogenes KCTC 3710 was cultured overnight at 37 °C in brain heart infusion (BHI). The cultures were diluted with fresh medium at a density of 2 × 10^5 CFU/mL. Peptides were serially diluted in sodium phosphate buffer (pH 7.2) to a final concentration of 25 μM. In a 96-well plate, 50-μL bacterial aliquots were mixed with 50 μL peptide solution. After incubation at 37 °C for 18 h, the MIC was determined using a plate reader at 600 nm. The experiment was performed in triplicate.

The test system of data set [3] is A. baumannii #2. In words: microbe, parasite or virus in culture. Particulars: A. baumannii #2 isolated from patient; broth microdilution, 37 °C, 18 h; three independent experiments.
Source text: as §2, §3

The subject of data set [4] is A. baumannii #3. In words: microbe, parasite or virus in culture. The following applies: A. baumannii #3 isolated from patient; broth microdilution, 37 °C, 18 h; three independent experiments.
Source text: as §2, §3

Data set [5] relates to A. baumannii 719705. The data set can be described thus: microbe, parasite or virus in culture. The following applies: A. baumannii 719705 isolated from patient; broth microdilution, 37 °C, 18 h; three independent experiments.
Source text: as §2, §3

Data set [6] concerns A. baumannii 409081. In words: microbe, parasite or virus in culture. Particulars: A. baumannii 409081 isolated from patient; broth microdilution, 37 °C, 18 h; three independent experiments.
Source text: as §2, §3

The subject of data set [7] is A. baumannii 907233. The data set can be described thus: microbe, parasite or virus in culture. Particulars: A. baumannii 907233 isolated from patient; broth microdilution, 37 °C, 18 h; three independent experiments.
Source text: as §2, §3

Data set [8] has as its system S. typhimurium ATCC 14028. In words: MIC, broth microdilution. The class given is cell-based, Salmonella typhimurium. The following applies: two-fold broth microdilution, NB, 2 × 10^5 CFU/mL, 37 °C, 18 h, read at 600 nm, three independent experiments. The protocol: as §1
Data set [9] relates to S. aureus ATCC 25923. The data set can be described thus: MIC, broth microdilution. The following applies: two-fold broth microdilution, TSB, 2 × 10^5 CFU/mL, 37 °C, 18 h, read at 600 nm, three independent experiments. The format is cell-based, Staphylococcus aureus. The protocol: as §1
In data set [10] the test system is S. aureus ATCC 29213. The data set can be described thus: MIC, broth microdilution. The following applies: two-fold broth microdilution, TSB, 2 × 10^5 CFU/mL, 37 °C, 18 h, read at 600 nm, three independent experiments. The class given is cell-based, Staphylococcus aureus. The protocol:
as §1

In data set [11] the test system is E. coli ATCC 25922. The data set can be described thus: MIC, broth microdilution. The class given is cell-based, Escherichia coli. Particulars: two-fold broth microdilution, LB, 2 × 10^5 CFU/mL, 37 °C, 18 h, read at 600 nm, three independent experiments. The protocol: as §1
In data set [12] the test system is P. aeruginosa ATCC 27853. In words: MIC, broth microdilution. The class given is cell-based. The following applies: two-fold broth microdilution, NB, 2 × 10^5 CFU/mL, 37 °C, 18 h, read at 600 nm, three independent experiments. The protocol: as §1
Data set [13] relates to K. pneumoniae KCTC 2208. In words: MIC, broth microdilution. The class given is cell-based. Particulars: two-fold broth microdilution, NB, 2 × 10^5 CFU/mL, 37 °C, 18 h, read at 600 nm, three independent experiments. How it is done: as §1
In data set [14] the test system is HaCaT cells. Particulars: 50 μM peptide, 24 h, MTT assay. How it is done:
The cytotoxicity of the peptides against mammalian cells was calculated using the MTT assay. Human keratinocyte HaCaT cells were incubated in Dulbecco’s modified Eagle’s medium (DMEM) supplemented with 10% fetal bovine serum and 1% penicillin at 37 °C with 5% CO2. HaCaT cells were added at 2 × 10^5 cells/mL to DMEM supplemented with 10% fetal bovine serum and placed in 96-well plates. The plates were incubated overnight at 37 °C in a CO2 incubator. Peptides were serially diluted two-fold in DMEM, added to the cell cultures and incubated for 24 h at 37 °C. MTT solution (5 mg/mL) was added to each well and incubated for 1 h at 37 °C. The media was discarded, and the formazan crystals were dissolved in 100 μL dimethyl sulfoxide. The absorbance was measured using a Versa-Max microplate ELISA reader (Molecular Devices, Sunnyvale, CA, USA) at 570 and 650 nm. As a […], 0.1% Triton X-100 was used.
Background: Tetrazolium assays rely on reduction of a dye to a coloured formazan, in cell work by metabolically active cells.

In data set [15] the test system is L. monocytogenes KCTC 3710. The data set can be described thus: MIC, broth microdilution. The format is cell-based, Listeria monocytogenes. Particulars: two-fold broth microdilution, BHI, 2 × 10^5 CFU/mL, 37 °C, 18 h, read at 600 nm, three independent experiments. The protocol: as §1
For data set [16], the system named is A. baumannii KCTC 2508. The following applies: NB supplemented with 150 mM NaCl, triplicate. How it is done: as §3
To determine whether antibacterial activity was affected by the presence of salts, experiments were conducted as previously reported. We determined the MICs of NB supplemented with 150 mM NaCl. MIC assays were performed as described above. The assay was performed in triplicate.

The test system of data set [17] is mouse red blood cells. The data set can be described thus: Hemolytic assay. The format is cell-based. The following applies: 50 μM peptide (highest tested concentration); 8% mouse red blood cells in PBS, 1 h, 37 °C, absorbance 414 nm, vs 0.1% Triton X-100. The protocol:
The hemolytic activity of the peptides against mouse erythrocytes was determined using red blood cells. Fresh mouse red blood cells were washed three times and resuspended in PBS to attain an 8% dilution. Peptides were serially diluted to a final concentration of 50 μM. Next, 100 µL peptide solution was added to 100 μL of mouse red blood cells, wrapped with aluminum foil and incubated for 1 h at 37 °C. The mixture was then centrifuged at 1500× g for 10 min. The supernatant was transferred into a new 96-well plate, and the absorbance of the supernatant was measured at 414 nm. As positive and negative controls, […] in mouse red blood cells were used. Hemolysis was evaluated according to the following equation:
Hemolysis (%) = [(Abs414 nm in the peptide solution − Abs414 nm in PBS)/(Abs414 nm in 0.1% Triton X-100 − Abs414 nm in PBS)] × 100.

Data set [18] has as its system A. baumannii KCTC 2508. In words: MIC, broth microdilution. The format is cell-based, Acinetobacter baumannii. The following applies: two-fold broth microdilution, NB, 2 × 10^5 CFU/mL, 37 °C, 18 h, read at 600 nm, no added salt, three independent experiments. How it is done:
as §1

Where no end group is shown, it is not given here. Bounds are passed on as bounds.

Regarding “GILGKLWEGVKSIF-NH2 [Hp1404, reference compound]”, the MIC is given as 12.5 µM in [1]; 3.13 µM in data set [2]; 3.13 µM in data set [3]; 3.13 µM in [4]; 3.13 µM in data set [5]; 3.13 µM in data set [6]. Also, the MIC amounted to 3.13 µM in data set [7]; 3.13 µM in data set [8]; 3.13 µM in data set [9]; 6.25 µM in [10]; 12.5 µM in data set [11]; 12.5 µM in data set [12]. Moreover, the MIC was 12.5 µM in [13], 3.13 µM in data set [15] and 3.13 µM in data set [18]. The substance further returned a Cell viability in data set [14] of 72.3%. Also, in [16], the “MIC in the presence of 150 mM NaCl” value stood at 6.25 µM. The same substance returned a hemolytic activity in [17] of 49.2%.
For GILGKLWEGVKSII-NH2 [Hp1404-I], the MIC in [1] was determined as 25 µM; in [2], 3.13 µM; in data set [3] it was 3.13 µM; in data set [4], 3.13 µM; in data set [5], 6.25 µM; in data set [6] it was 3.13 µM. The MIC in [7] stood at 3.13 µM; in data set [8], 3.13 µM; in data set [9] it was 3.13 µM; in [10], 12.5 µM; in [11], 12.5 µM; in data set [12], 25 µM. Further, the MIC in data set [13] is 25 µM; in data set [15], 6.25 µM; in data set [18] it was 3.13 µM. Further, the Cell viability in [14] is recorded as 100%. Moreover, the “MIC in the presence of 150 mM NaCl” value in data set [16] is 12.5 µM.
For GILGKLWEGVKSIW-NH2 [Hp1404-W], the MIC turned out to be 25 µM in [1]; 3.13 µM in data set [2]; 3.13 µM in data set [3]; 3.13 µM in [4]; 3.13 µM in data set [5]; 3.13 µM in data set [6]. Further, the MIC in data set [7] is 3.13 µM; in [8], 3.13 µM; in data set [9], 3.13 µM; in data set [10] it was 12.5 µM; in [11] it was 12.5 µM; in [12], 25 µM. Moreover, the results for the MIC in [13], in data set [15] and in [18] were 12.5 µM, 6.25 µM and 3.13 µM, respectively. The substance further had a Cell viability in [14] of 100%. In data set [16], the “MIC in the presence of 150 mM NaCl” value came out at 6.25 µM. The substance further returned a hemolytic activity in data set [17] of 15.9%.
As for GILGKLWEGVKSIL-NH2 [Hp1404-L], the MIC in data set [1] is reported as 12.5 µM; in [2], 3.13 µM; in data set [3], 3.13 µM; in [4], 3.13 µM; in data set [5] it was 3.13 µM; in data set [6], 3.13 µM. The MIC worked out at 3.13 µM in data set [7]; 1.56 µM in data set [8]; 1.56 µM in [9]; 6.25 µM in [10]; 12.5 µM in data set [11]; 12.5 µM in data set [12]. The MIC in data set [13] is on record as 12.5 µM; in data set [15], 3.13 µM; in data set [18] it was 3.13 µM. The Cell viability in data set [14] is 62.4%. For the same substance, in [16], the “MIC in the presence of 150 mM NaCl” value came to 6.25 µM. For the same substance, the hemolytic activity in data set [17] was found to be 45.8%.
Regarding GILGKLWEGVKSIV-NH2 [Hp1404-V], the MIC in [1] is on record as 25 µM; in data set [2] it was 6.25 µM; in data set [3], 6.25 µM; in data set [4], 6.25 µM; in [5] it was 12.5 µM; in [6], 6.25 µM. Besides, the MIC was 6.25 µM in data set [7]; 6.25 µM in [8]; 6.25 µM in [9]; 25 µM in [10]; 25 µM in data set [11]; greater than 25 µM in data set [12]. The MIC in [13] is reported as greater than 25 µM; in [15] it was 25 µM; in data set [18] it was 6.25 µM. This substance also registered a Cell viability in data set [14] of 100%. For the same substance, the “MIC in the presence of 150 mM NaCl” value in data set [16] worked out at 25 µM. The hemolytic activity result in data set [17] is given as “no hemolytic activity”.
